Laboratory results: PubChem BioAssay AID274 (DTP/NCI, 2004)
Several values for one entry are separate records, joined by “and”; a condition that tells them apart may be missing. Identical values can stand only once. Toxic doses and inconclusive results are not listed. The calls were made as follows: active = survival T/C of 150% or more; inactive = T/C below 125% in these data.

Test system: BDF1 mice, Lewis lung carcinoma iv, survival T/C
Test: NCI In Vivo Anticancer Drug Screen. Data for tumor model Lewis Lung Carcinoma (intravenous) in B6D2F1 (BDF1) mice
Conditions: endpoint: median survival time, higher = longer survival
Method: The antitumor activity of compounds was measured in mice bearing transplantable tumors. Survival or tumor size were measured and the results are expressed as the measurement made in the treated group (T) divided by the measurement made in the vehicle treated control group (C). The tumor model used in this assay is Lewis Lung Carcinoma (intravenous) in B6D2F1 (BDF1) mice

[1] = dose: 5.0 mg/kg/injection, schedule: Q01DX009 (ip), vehicle: saline
[2] = dose: 10.0 mg/kg/injection, schedule: Q01DX009 (ip), vehicle: saline
[3] = dose: 12.5 mg/kg/injection, schedule: Q01DX009 (ip), vehicle: saline with Tween-80
[4] = dose: 25.0 mg/kg/injection, schedule: Q01DX009 (ip), vehicle: saline with Tween-80
[5] = dose: 50.0 mg/kg/injection, schedule: Q01DX009 (ip), vehicle: saline with Tween-80
[6] = dose: 100.0 mg/kg/injection, schedule: Q01DX009 (ip), vehicle: saline with Tween-80
[7] = dose: 200.0 mg/kg/injection, schedule: Q01DX009 (ip), vehicle: saline with Tween-80
[8] = dose: 12.5 mg/kg/injection, schedule: Q01DX009 (ip), vehicle: saline
[9] = dose: 25.0 mg/kg/injection, schedule: Q01DX009 (ip), vehicle: saline
[10] = dose: 50.0 mg/kg/injection, schedule: Q01DX009 (ip), vehicle: saline
[11] = dose: 100.0 mg/kg/injection, schedule: Q01DX009 (ip), vehicle: saline
[12] = dose: 200.0 mg/kg/injection, schedule: Q01DX009 (ip), vehicle: saline
[13] = dose: 12.5 mg/kg/injection, schedule: Q01DX009 (ip), vehicle: Klucel (hydroxypropylcellulose) (HPC)
[14] = dose: 25.0 mg/kg/injection, schedule: Q01DX009 (ip), vehicle: Klucel (hydroxypropylcellulose) (HPC)
[15] = dose: 50.0 mg/kg/injection, schedule: Q01DX009 (ip), vehicle: Klucel (hydroxypropylcellulose) (HPC)
[16] = dose: 100.0 mg/kg/injection, schedule: Q01DX009 (ip), vehicle: Klucel (hydroxypropylcellulose) (HPC)
[17] = dose: 200.0 mg/kg/injection, schedule: Q01DX009 (ip), vehicle: Klucel (hydroxypropylcellulose) (HPC)
[18] = dose: 0.62 mg/kg/injection, schedule: Q01DX009 (ip), vehicle: saline
[19] = dose: 2.5 mg/kg/injection, schedule: Q01DX009 (ip), vehicle: saline

Measured: T/C

COc1cc2c(c(OC)c1OC)-c1ccc(OC)c(=O)cc1[C@@H](NC(C)=O)CC2
inactive: dose: 0.19 mg/kg/injection, schedule: Q01DX009 (ip), vehicle: saline 102 % of control | dose: 0.38 mg/kg/injection, schedule: Q01DX009 (ip), vehicle: saline 109 % of control

Nc1nc(=S)c2ncn(C3OC(CO)CC3O)c2[nH]1 (stereo unspecified)
inactive: [1] 115 % of control | [2] 101 % of control | dose: 20.0 mg/kg/injection, schedule: Q01DX009 (ip), vehicle: saline 87 % of control

C[Si](C)(C)O/C=C1\CCCCC1=O
inactive: dose: 6.25 mg/kg/injection, schedule: Q01DX009 (ip), vehicle: saline with Tween-80 96 % of control and 98 % of control | [3] 96 % of control and 98 % of control | [4] 93 % of control and 102 % of control | [5] 102 % of control and 107 % of control | [6] 104 % of control and 116 % of control | [7] 104 % of control and 113 % of control

C(CSC1=NCCN1)CSC1=NCCN1
inactive: dose: 6.25 mg/kg/injection, schedule: Q01DX009 (ip), vehicle: saline 93 % of control | [8] 100 % of control | [9] 93 % of control | [10] 93 % of control | [11] 102 % of control | [12] 100 % of control

Cc1ccccc1N(CC1CO1)CC1CO1 (stereo unspecified)
inactive: [8] 106 % of control | [9] 103 % of control | [10] 109 % of control | [11] 100 % of control | [12] 110 % of control

S=C(Nc1ccc(Cl)c(Cl)c1)N1c2ccccc2-n2cccc2C1c1cccnc1 (stereo unspecified)
inactive: [13] 93 % of control and 105 % of control | [14] 99 % of control and 91 % of control | [15] 98 % of control and 100 % of control | [16] 94 % of control and 101 % of control | [17] 105 % of control and 110 % of control | dose: 400.0 mg/kg/injection, schedule: Q01DX009 (ip), vehicle: Klucel (hydroxypropylcellulose) (HPC) 115 % of control

Clc1ccc2c(Cl)ncnc2c1
inactive: [5] 107 % of control | [6] 118 % of control | [7] 111 % of control

CCN1C[C@]2(COC)[C@H](O)C[C@H](OC)[C@]34C1[C@H]([C@H](OC)[C@H]23)[C@]1(OC(C)=O)[C@H]2[C@@H](OC(=O)c3ccccc3)[C@](O)(C[C@H]24)[C@@H](OC)[C@@H]1O
inactive: dose: 0.03 mg/kg/injection, schedule: Q01DX009 (ip), vehicle: Klucel (hydroxypropylcellulose) (HPC) 108 % of control | dose: 0.06 mg/kg/injection, schedule: Q01DX009 (ip), vehicle: Klucel (hydroxypropylcellulose) (HPC) 107 % of control | dose: 0.13 mg/kg/injection, schedule: Q01DX009 (ip), vehicle: Klucel (hydroxypropylcellulose) (HPC) 99 % of control

CC1CN1C(=O)NCCCCCCNC(=O)N1CC1C (stereo unspecified)
inactive: dose: 2.5 mg/kg/injection, schedule: Q01DX009 (ip), vehicle: saline + alcohol 111 % of control

O=C1C2CC(Cl)C(SSC3CC4C(=O)N(SC(Cl)(Cl)C(Cl)Cl)C(=O)C4CC3Cl)CC2C(=O)N1SC(Cl)(Cl)C(Cl)Cl (stereo unspecified)
inactive: dose: 6.0 mg/kg/injection, schedule: Q01DX009 (ip), vehicle: Klucel (hydroxypropylcellulose) (HPC) 104 % of control | dose: 12.0 mg/kg/injection, schedule: Q01DX009 (ip), vehicle: Klucel (hydroxypropylcellulose) (HPC) 103 % of control | dose: 24.0 mg/kg/injection, schedule: Q01DX009 (ip), vehicle: Klucel (hydroxypropylcellulose) (HPC) 89 % of control | dose: 48.0 mg/kg/injection, schedule: Q01DX009 (ip), vehicle: Klucel (hydroxypropylcellulose) (HPC) 93 % of control | dose: 96.0 mg/kg/injection, schedule: Q01DX009 (ip), vehicle: Klucel (hydroxypropylcellulose) (HPC) 95 % of control

COc1cc2ccnc(C=O)c2cc1OC
inactive: [4] 107 % of control | [5] 102 % of control | [6] 102 % of control | [7] 108 % of control

CC(=O)C(O)N1C(=O)C=CC1=O (stereo unspecified)
inactive: [18] 115 % of control | dose: 0.63 mg/kg/injection, schedule: Q01DX009 (ip), vehicle: saline 95 % of control

S=c1nc[nH]c2nc[nH]c12
inactive: dose: 7.5 mg/kg/injection, schedule: Q01DX009 (ip), vehicle: Klucel (hydroxypropylcellulose) (HPC) 97 % of control | dose: 15.0 mg/kg/injection, schedule: Q01DX005 (ip), vehicle: Klucel (hydroxypropylcellulose) (HPC) 98 % of control | dose: 15.0 mg/kg/injection, schedule: Q01DX009 (ip), vehicle: Klucel (hydroxypropylcellulose) (HPC) 113 % of control and 87 % of control | dose: 30.0 mg/kg/injection, schedule: Q01DX005 (ip), vehicle: Klucel (hydroxypropylcellulose) (HPC) 122 % of control | dose: 30.0 mg/kg/injection, schedule: Q01DX009 (ip), vehicle: Klucel (hydroxypropylcellulose) (HPC) 92 % of control and 108 % of control | dose: 60.0 mg/kg/injection, schedule: Q01DX005 (ip), vehicle: Klucel (hydroxypropylcellulose) (HPC) 93 % of control | dose: 120.0 mg/kg/injection, schedule: Q01DX005 (ip), vehicle: Klucel (hydroxypropylcellulose) (HPC) 103 % of control | dose: 240.0 mg/kg/injection, schedule: Q01DX005 (ip), vehicle: Klucel (hydroxypropylcellulose) (HPC) 95 % of control

Cc1cc2nc(Cc3nc4cc(C)c(C)cc4[nH]3)[nH]c2cc1C
inactive: [3] 95 % of control | [4] 109 % of control | [5] 97 % of control and 104 % of control | [6] 100 % of control

C/C=C(\C)c1cc(=O)c2c(C)cc3c(c2o1)C(=O)c1c(O)c(C2CC(C)(N(C)C)C(OC(C)=O)C(C)O2)cc(C2CC(N(C)C)C(O)C(C)O2)c1C3=O (stereo unspecified)
inactive: dose: 0.15 mg/kg/injection, schedule: Q01DX009 (ip), vehicle: saline 104 % of control | dose: 0.31 mg/kg/injection, schedule: Q01DX009 (ip), vehicle: saline 101 % of control | [18] 107 % of control | dose: 1.25 mg/kg/injection, schedule: Q01DX009 (ip), vehicle: saline 98 % of control | [19] 103 % of control | [1] 119 % of control

NC1(C(=O)O)CCCc2ccc(N(CCCl)CCCl)cc21 (stereo unspecified)
inactive: [19] 99 % of control | [1] 98 % of control | dose: 10.0 mg/kg/injection, schedule: Q01DX009 (ip), vehicle: saline with Tween-80 118 % of control | [2] 109 % of control | dose: 20.0 mg/kg/injection, schedule: Q01DX009 (ip), vehicle: saline with Tween-80 108 % of control

Cc1cc(N(CCOS(C)(=O)=O)CCOS(C)(=O)=O)ccc1C=Nc1ccc(-c2nc(Cc3ccccc3)sc2C)cc1
inactive: [14] 117 % of control | [15] 87 % of control

C=CC(C)NC(=S)NNC(=S)NC (stereo unspecified)
inactive: dose: 25.0 mg/kg/injection, schedule: Q01DX009 (ip), vehicle: saline + alcohol 119 % of control | dose: 50.0 mg/kg/injection, schedule: Q01DX009 (ip), vehicle: saline + alcohol 110 % of control | dose: 100.0 mg/kg/injection, schedule: Q01DX009 (ip), vehicle: saline + alcohol 107 % of control | dose: 200.0 mg/kg/injection, schedule: Q01DX009 (ip), vehicle: saline + alcohol 104 % of control | dose: 400.0 mg/kg/injection, schedule: Q01DX009 (ip), vehicle: saline + alcohol 114 % of control

CCCCCC[C@H]([C@H](C)O)n1cnc2c(N)ncnc21
inactive: dose: 6.25 mg/kg/injection, schedule: Q01DX009 (ip), vehicle: Klucel (hydroxypropylcellulose) (HPC) 99 % of control | [13] 104 % of control | [14] 103 % of control | [16] 96 % of control | [17] 99 % of control
